{"source": "paper PMC5312290", "about": "“Momordin Ic, a new natural SENP1 inhibitor, inhibits prostate cancer cell proliferation” (Oncotarget, 2016)", "target": "SUMO-specific protease 1 (SENP1) (Homo sapiens, UniProt Q9P0U3)", "sequence (Q9P0U3 419-644 limits assumed)": "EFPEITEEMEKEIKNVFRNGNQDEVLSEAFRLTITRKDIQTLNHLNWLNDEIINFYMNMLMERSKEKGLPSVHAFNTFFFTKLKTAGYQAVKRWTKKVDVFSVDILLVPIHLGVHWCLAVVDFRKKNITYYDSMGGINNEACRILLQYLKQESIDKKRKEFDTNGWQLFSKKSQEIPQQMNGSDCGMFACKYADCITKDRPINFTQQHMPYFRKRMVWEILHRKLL", "data": [{"compound": "CC1(C)CC[C@]2(C(=O)O)CC[C@]3(C)C(=CC[C@@H]4[C@@]5(C)CC[C@H](O[C@@H]6O[C@H](C(=O)O)[C@@H](O)[C@H](O[C@@H]7OC[C@@H](O)[C@H](O)[C@H]7O)[C@H]6O)C(C)(C)[C@@H]5CC[C@]43C)[C@@H]2C1", "note": "[Mc, Momordin Ιc]", "values": [{"measurement": "IC50", "result": 15.4, "unit": "µM"}]}]}
